The subject of one data set is HepG2 cells. Kind of data set: HepG2 cytotoxicity, LDH release assay. As to conditions: Homo sapiens, HepG2, 24 h, read-out: HepG2 EC50.
In data set [1] the test system is immature-stage gametocytes (IGc, stage II/III). The data set can be described thus: Immature-stage gametocyte activity. The data set is classed as cell-based. Conditions: Plasmodium falciparum, 48 h drug pressure. Here is the method:
Figure 1 SQ109 is a gametocyte-targeting compound. (A) IC50 for parent compound SQ109/1 on asexual parasites (ABS), immature-stage gametocytes (IGc, stage II/III), or late-stage gametocytes (LGc, stage IV/V), under 48 h drug pressure. IC50 ABS: 1.58 ± 0.2 μM; IC50 IGc: 0.38 ± 0.10 μM; IC50 LGc: 0.14 ± 0.03 μM; ** P < 0.01 indicates IGc and LGc vs ABS. (B) Chemical structure and summary of the designed structure–activity relationships (SAR-1, SAR-2 and SAR-3) around SQ109/1. Data are from >2 independent biological repeats, mean ± SE indicated, unpaired Student’s t-test applied.

Another data set relates to PfK1. Kind of data set: SYBR Green I proliferation assay, asexual blood stages, multidrug-resistant K1. Conditions: Plasmodium falciparum, K1, read-out: Pf ABS IC50 K1.
Another data set has as its system PfNF54 ABS. Details: method as in Stampolaki et al.[5]. Conditions: drug-sensitive NF54; ref Stampolaki et al.[5]; read-out: Pf ABS IC50 NF54; cited from earlier work.
The test system of another data set is male gametes (PfNF54). Further details: method as in Reader et al.[4]. Conditions: ref Reader et al.[4]; cited from earlier work.
The next data set has as its system female gametes. Details: method as in Reader et al.[4]. As to conditions: ref Reader et al.[4]; cited from earlier work.
In data set [2] the test system is African field isolate SB05. The data set can be described thus: Ex vivo activity on clinical isolate SB05. Type of data set: cell-based, Plasmodium falciparum. From the text:
(§1) Since SB03/05 are both multiclonal,[27] this warrants further investigation into the activity of this series toward clinical gametocytes.
(§2) (A) Dose–response analysis of SQ109 on clinical isolates SB03 and SB05 in comparison to lab-adapted NF54 P. falciparum parasites. Data are from at least 2 independent biological repeats, mean ± SE indicated, * P < 0.05 is indicated. (B) IC50 for SQ109 analogs 13 and 19 against a contemporary African field isolate SB05. […] TEXT PRINTED IN THE PICTURE: (A) SQ109/1: IC50 (μM), NF54: 1.58 ± 0.20; IC50 (μM), SB03: 0.63 ± 0.01; IC50 (μM), SB05: 0.90 DOUBTS OF THE COPYIST ABOUT THIS PICTURE: Panel A: the three IC50 values are matched to NF54, SB03 and SB05 only by line style (black dashed, grey solid, grey dashed), not by a printed label beside the numbers.

In the next data set the test system is PfDd2 parasites. Kind of data set: Asexual blood stage activity, chloroquine-resistant Dd2. Type of data set: cell-based. Conditions: Plasmodium falciparum, DD2, read-out: Pf ABS IC50 (Dd2). The text has this:
This strain is highly resistant to chloroquine and other antimalarials and is associated with increased export of e.g., chloroquine from the digestive vacuole.[23] This phenotype was also replicated in PfDd2 parasites, also resistant to chloroquine (among other antimalarials), with 4 and 5 losing activity but 1 similarly active (Table 1). These aromatic compounds may therefore be subject to resistance mechanisms similar to those found with chloroquine.

Another data set is described as follows: in vitro. The data set is classed as in vitro ADME. Conditions: microsomes. On the procedure: The microsomal stability assay used a single-point assay design (Di et al., 2004). Briefly, the compounds were incubated at 1 μM in human, rat, and mouse liver microsomes (0.4 mg/mL) for 30 min at 37 °C. Reactions were quenched by adding ice-cold acetonitrile containing internal standard (carbamazepine, 0.0236 μg/mL). The samples were then centrifuged, and the samples were analyzed by liquid chromatography with tandem mass spectrometry (LC-MS/MS) (Agilent Rapid Resolution HPLC, AB SCIEX 4500 MS) for the disappearance of the parent compound. Half-life, clearance and hepatic […] ratios were determined using standard equations.

The next data set relates to clinical isolate SB03. The data set can be described thus: Ex vivo activity on clinical isolate SB03. Type of data set: cell-based. As to conditions: Plasmodium falciparum, read-out: IC50 SB03.
Source text: as §1, §2

The test system of another data set is oocyst formation. Conditions: cited from earlier work.
Data set [3] concerns PfNF54 LGc (stage IV/V gametocytes). The data set can be described thus: PrestoBlue late-stage gametocyte viability assay. The data set is classed as cell-based, Plasmodium falciparum. Here is the method: Gametocytogenesis was induced on highly synchronized (>95%) asexual ring-stage parasites from PfNF54 at 0.5% parasitemia and 6% hematocrit and thereafter maintained in glucose-deprived media as previously described.[29],[15] After 3 days, the hematocrit was decreased to 4%. Parasites were maintained in complete culture media supplemented with 50 mM N-acetyl-glucosamine 5–10 days post induction to inhibit proliferation of residual asexual blood stages. Gametocyte progression and morphology was also monitored microscopically using Giemsa-stained thin smears.
activity against the sexual stages of P. falciparum was evaluated using the PrestoBlue fluorescence assay as previously described.[4] Activity was measured on PfNF54 stage IV/V gametocytes (2% gametocytemia, 5% hematocrit) previously seeded with compounds (in non-lethal DMSO) for 48 h drug pressure, after which PrestoBlue reagent was added and incubated for 2 h. Fluorescence was detected in the supernatant at 612 nm. Dihydroartemisinin (DHA) was used as a positive drug control.

[4] abbreviates: 48 h drug treatment at 2 μM, ref Reader et al.[4].

Marks after values point to notes of the source that are not given here. A value given as a limit tells only on which side of the number the result lay.

Procedure for HepG2 cells: Furthermore, compounds were evaluated against late (stage IV/V) gametocytes from PfNF54 (PfNF54 LGc), with viability detected with PrestoBlue,[15] and orthogonally evaluated for toxicity against a human hepatocellular carcinoma line, HepG2.[16]
Human hepatocellular liver carcinoma cells (HepG2) were cultivated in vitro in Dulbecco’s Modified Eagle’s Medium (DMEM) supplemented with 10% (v/v) heat inactivated fetal bovine serum and 1% (v/v) penicillin/streptomycin.[14] Cells were detached with trypsin treatment at 80% confluency and were seeded in 96-well plates to adhere for 24 h under 5% CO2, humid (95%) conditions. Cells were subsequently exposed to drug pressure for 24 h and cytotoxicity was then determined using the lactate dehydrogenase (LDH) release assay through the colorimetric detection at 450 nm, as previously outlined.[4],[16]
Procedure for PfK1: P. falciparum asexual parasites were cultured from drug-sensitive NF54 (PfNF54) and multidrug resistant strains PfK1. Parasites were maintained in human erythrocytes (O+, suspended at 5% hematocrit) in RPMI-1640 culture medium (23.81 mM sodium bicarbonate, 0.024 mg/mL gentamycin, 25 mM HEPES pH 7.5, 0.2% D-glucose, 0.2 mM hypoxanthine and Albumax II) under hypoxic conditions (5% CO2, 5% O2 and 90% N2) with moderate shaking (60 rpm) at 37 °C. Cultures were synchronized to >95% in the ring stage with 5% (w/v) D-sorbitol treatment.[28]
Activity against the asexual stage of P. falciparum was evaluated using the SYBR Green I-based fluorescence assay as previously described.[4],[16] Cellular proliferation was measured on synchronized in vitro PfNF54 ring-stage parasites (1% parasitemia, 2% hematocrit), following drug pressure for 96 h. Chloroquine was used as the positive drug control for complete inhibition of parasite proliferation.

As to `CC(C)=CCC/C(C)=C/CNCCNC1C2CC3CC(C2)CC1C3` (stereo not drawn) [Compound 1, N-geranyl-N′-(2-adamantyl)ethane-1,2-diamine, reference compound], in the data set with HepG2 cells, the concentration giving a half-maximal response (EC50) stood at 9210 ± 1990 nM. Further, the IC50 in data set [1] was 380 nM; with PfK1, 3480 ± 240 nM; in the data set with PfNF54 ABS, 1580 ± 200 nM; in data set [2] (Plasmodium falciparum, read-out: IC50 SB05) it was 900 nM; with PfDd2 parasites it was 1440 nM; in the data set on clinical isolate SB03 it was 630 ± 10 nM. The half-inhibitory concentration (IC50) in data set [3] (Plasmodium falciparum, stage IV/V gametocytes, 48 h drug pressure, read-out: PfNF54 LGc IC50) amounted to 140 ± 30 nM. Further, in the data set on male gametes (PfNF54), the “male gamete inhibition %” value is 72.98 ± 5.97 ^c %. The “female gamete inhibition %” value in the data set with female gametes is on record as 51.74 ± 5.40 ^c %. In [2] (contemporary African clinical isolates ex vivo), the “shift in IC50, clinical isolates vs NF54” value is reported as “no significant shift”. Also, the microsomal CLint at 1 µM in the data set “in vitro” (human) was 442 µL/min/mg; in “in vitro” (mouse), 410 µL/min/mg; in “in vitro” (rat), 385 µL/min/mg. Besides, the “oocyst formation (% inhibition) TBA” value with oocyst formation (setting [4]) is 36.0 ± 10.6 ^c %. Also, the “oocyst formation (% inhibition) TRA” value in the data set on oocyst formation (setting [4]) is on record as 76.0 ± 4.75 ^c %. For the same molecule, in the data set on oocyst formation, the transmission-reducing activity is given as 80%. Besides, the “selectivity toward LGc compared to ABS” value in [3] (LGc IC50 vs ABS IC50) is on record as greater than 10 fold.

The values are drawn from paper PMC11406516, “The Tuberculosis Drug Candidate SQ109 and Its Analogs Have Multistage Activity against Plasmodium falciparum” (ACS Infectious Diseases, 2024).
